Among the data in the OligoGym collection are normalised inhibition (eCFP-eYFP dual reporter) values, retold here.

Oligonucleotides are given in HELM: sugar(base)linkage, 5' to 3'; d 2'-deoxyribose, r ribose, m 2'-O-methylribose, p phosphate. ss, as = sense and antisense strand
Also: test concentration or dose not given here.

For the series, the target named is Mmp7 (rat). In words: reporter assay of Huesken 2005. To be noted: siRNA. For orientation: A reporter such as luciferase makes a cellular process visible.
On to “RNA1{r(A)p.r(G)p.r(U)p.r(U)p.r(C)p.r(U)p.r(U)p.r(C)p.r(G)p.r(G)p.r(U)p.r(U)p.r(U)p.r(G)p.r(C)p.r(C)p.r(G)p.r(G)p.r(A)p.d(T)p.d(T)}|RNA2{r(U)p.r(C)p.r(C)p.r(G)p.r(G)p.r(C)p.r(A)p.r(A)p.r(A)p.r(C)p.r(C)p.r(G)p.r(A)p.r(A)p.r(G)p.r(A)p.r(A)p.r(C)p.r(U)p.d(T)p.d(C)}$$$RNA1{StrandType:ss}|RNA2{StrandType:as}$”, for which the normalised inhibition (eCFP-eYFP dual reporter) was 53.8%.
For “RNA1{r(G)p.r(A)p.r(G)p.r(G)p.r(G)p.r(A)p.r(A)p.r(A)p.r(U)p.r(G)p.r(C)p.r(A)p.r(G)p.r(A)p.r(A)p.r(G)p.r(U)p.r(U)p.r(C)p.d(T)p.d(T)}|RNA2{r(G)p.r(A)p.r(A)p.r(C)p.r(U)p.r(U)p.r(C)p.r(U)p.r(G)p.r(C)p.r(A)p.r(U)p.r(U)p.r(U)p.r(C)p.r(C)p.r(C)p.r(U)p.r(C)p.d(A)p.d(G)}$$$RNA1{StrandType:ss}|RNA2{StrandType:as}$” the value was 97.5%.
For “RNA1{r(A)p.r(U)p.r(C)p.r(U)p.r(U)p.r(A)p.r(G)p.r(G)p.r(A)p.r(A)p.r(A)p.r(U)p.r(U)p.r(U)p.r(U)p.r(A)p.r(C)p.r(C)p.r(U)p.d(T)p.d(T)}|RNA2{r(A)p.r(G)p.r(G)p.r(U)p.r(A)p.r(A)p.r(A)p.r(A)p.r(U)p.r(U)p.r(U)p.r(C)p.r(C)p.r(U)p.r(A)p.r(A)p.r(G)p.r(A)p.r(U)p.d(A)p.d(A)}$$$RNA1{StrandType:ss}|RNA2{StrandType:as}$” the value was 79.6%; for “RNA1{r(U)p.r(C)p.r(U)p.r(G)p.r(U)p.r(U)p.r(C)p.r(C)p.r(C)p.r(A)p.r(G)p.r(U)p.r(U)p.r(C)p.r(U)p.r(G)p.r(U)p.r(G)p.r(A)p.d(T)p.d(T)}|RNA2{r(U)p.r(C)p.r(A)p.r(C)p.r(A)p.r(G)p.r(A)p.r(A)p.r(C)p.r(U)p.r(G)p.r(G)p.r(G)p.r(A)p.r(A)p.r(C)p.r(A)p.r(G)p.r(A)p.d(A)p.d(G)}$$$RNA1{StrandType:ss}|RNA2{StrandType:as}$”, 99.6%; for “RNA1{r(C)p.r(C)p.r(C)p.r(U)p.r(A)p.r(C)p.r(C)p.r(U)p.r(A)p.r(U)p.r(C)p.r(A)p.r(A)p.r(G)p.r(G)p.r(A)p.r(G)p.r(A)p.r(U)p.d(T)p.d(T)}|RNA2{r(A)p.r(U)p.r(C)p.r(U)p.r(C)p.r(C)p.r(U)p.r(U)p.r(G)p.r(A)p.r(U)p.r(A)p.r(G)p.r(G)p.r(U)p.r(A)p.r(G)p.r(G)p.r(G)p.d(T)p.d(A)}$$$RNA1{StrandType:ss}|RNA2{StrandType:as}$”, 102%.
Consider “RNA1{r(C)p.r(A)p.r(G)p.r(U)p.r(G)p.r(C)p.r(A)p.r(G)p.r(U)p.r(G)p.r(G)p.r(A)p.r(C)p.r(A)p.r(A)p.r(A)p.r(C)p.r(U)p.r(G)p.d(T)p.d(T)}|RNA2{r(C)p.r(A)p.r(G)p.r(U)p.r(U)p.r(U)p.r(G)p.r(U)p.r(C)p.r(C)p.r(A)p.r(C)p.r(U)p.r(G)p.r(C)p.r(A)p.r(C)p.r(U)p.r(G)p.d(G)p.d(T)}$$$RNA1{StrandType:ss}|RNA2{StrandType:as}$”, for which the normalised inhibition (eCFP-eYFP dual reporter) stood at 100%.
On to “RNA1{r(G)p.r(G)p.r(U)p.r(G)p.r(A)p.r(G)p.r(G)p.r(A)p.r(C)p.r(U)p.r(C)p.r(A)p.r(G)p.r(G)p.r(C)p.r(G)p.r(U)p.r(G)p.r(A)p.d(T)p.d(T)}|RNA2{r(U)p.r(C)p.r(A)p.r(C)p.r(G)p.r(C)p.r(C)p.r(U)p.r(G)p.r(A)p.r(G)p.r(U)p.r(C)p.r(C)p.r(U)p.r(C)p.r(A)p.r(C)p.r(C)p.d(A)p.d(T)}$$$RNA1{StrandType:ss}|RNA2{StrandType:as}$”, for which the normalised inhibition (eCFP-eYFP dual reporter) was found to be 94.6%.
With “RNA1{r(G)p.r(C)p.r(U)p.r(C)p.r(A)p.r(C)p.r(U)p.r(U)p.r(U)p.r(G)p.r(A)p.r(C)p.r(A)p.r(A)p.r(G)p.r(G)p.r(A)p.r(U)p.r(G)p.d(T)p.d(T)}|RNA2{r(C)p.r(A)p.r(U)p.r(C)p.r(C)p.r(U)p.r(U)p.r(G)p.r(U)p.r(C)p.r(A)p.r(A)p.r(A)p.r(G)p.r(U)p.r(G)p.r(A)p.r(G)p.r(C)p.d(A)p.d(T)}$$$RNA1{StrandType:ss}|RNA2{StrandType:as}$” the figure was 102%; with “RNA1{r(A)p.r(G)p.r(U)p.r(A)p.r(C)p.r(U)p.r(G)p.r(G)p.r(A)p.r(C)p.r(G)p.r(G)p.r(A)p.r(U)p.r(G)p.r(G)p.r(U)p.r(G)p.r(A)p.d(T)p.d(T)}|RNA2{r(U)p.r(C)p.r(A)p.r(C)p.r(C)p.r(A)p.r(U)p.r(C)p.r(C)p.r(G)p.r(U)p.r(C)p.r(C)p.r(A)p.r(G)p.r(U)p.r(A)p.r(C)p.r(U)p.d(C)p.d(A)}$$$RNA1{StrandType:ss}|RNA2{StrandType:as}$”, 90.5%.
For “RNA1{r(U)p.r(C)p.r(A)p.r(U)p.r(A)p.r(A)p.r(U)p.r(U)p.r(G)p.r(G)p.r(C)p.r(U)p.r(U)p.r(C)p.r(G)p.r(C)p.r(A)p.r(A)p.r(G)p.d(T)p.d(T)}|RNA2{r(C)p.r(U)p.r(U)p.r(G)p.r(C)p.r(G)p.r(A)p.r(A)p.r(G)p.r(C)p.r(C)p.r(A)p.r(A)p.r(U)p.r(U)p.r(A)p.r(U)p.r(G)p.r(A)p.d(T)p.d(G)}$$$RNA1{StrandType:ss}|RNA2{StrandType:as}$” the value was 75.5%; for “RNA1{r(C)p.r(G)p.r(C)p.r(A)p.r(C)p.r(U)p.r(U)p.r(C)p.r(A)p.r(G)p.r(U)p.r(G)p.r(G)p.r(G)p.r(A)p.r(A)p.r(C)p.r(A)p.r(G)p.d(T)p.d(T)}|RNA2{r(C)p.r(U)p.r(G)p.r(U)p.r(U)p.r(C)p.r(C)p.r(C)p.r(A)p.r(C)p.r(U)p.r(G)p.r(A)p.r(A)p.r(G)p.r(U)p.r(G)p.r(C)p.r(G)p.d(G)p.d(T)}$$$RNA1{StrandType:ss}|RNA2{StrandType:as}$”, 91.1%.
For “RNA1{r(C)p.r(G)p.r(C)p.r(A)p.r(A)p.r(G)p.r(G)p.r(G)p.r(G)p.r(A)p.r(G)p.r(A)p.r(U)p.r(C)p.r(A)p.r(C)p.r(G)p.r(G)p.r(A)p.d(T)p.d(T)}|RNA2{r(U)p.r(C)p.r(C)p.r(G)p.r(U)p.r(G)p.r(A)p.r(U)p.r(C)p.r(U)p.r(C)p.r(C)p.r(C)p.r(C)p.r(U)p.r(U)p.r(G)p.r(C)p.r(G)p.d(A)p.d(A)}$$$RNA1{StrandType:ss}|RNA2{StrandType:as}$” the value was 97.3%; for “RNA1{r(G)p.r(G)p.r(G)p.r(A)p.r(G)p.r(A)p.r(U)p.r(C)p.r(A)p.r(C)p.r(G)p.r(G)p.r(A)p.r(G)p.r(A)p.r(C)p.r(A)p.r(A)p.r(C)p.d(T)p.d(T)}|RNA2{r(G)p.r(U)p.r(U)p.r(G)p.r(U)p.r(C)p.r(U)p.r(C)p.r(C)p.r(G)p.r(U)p.r(G)p.r(A)p.r(U)p.r(C)p.r(U)p.r(C)p.r(C)p.r(C)p.d(C)p.d(T)}$$$RNA1{StrandType:ss}|RNA2{StrandType:as}$”, 94.2%; for “RNA1{r(C)p.r(C)p.r(A)p.r(G)p.r(G)p.r(A)p.r(A)p.r(A)p.r(C)p.r(A)p.r(C)p.r(U)p.r(C)p.r(U)p.r(A)p.r(G)p.r(G)p.r(C)p.r(C)p.d(T)p.d(T)}|RNA2{r(G)p.r(G)p.r(C)p.r(C)p.r(U)p.r(A)p.r(G)p.r(A)p.r(G)p.r(U)p.r(G)p.r(U)p.r(U)p.r(U)p.r(C)p.r(C)p.r(U)p.r(G)p.r(G)p.d(C)p.d(C)}$$$RNA1{StrandType:ss}|RNA2{StrandType:as}$”, 33.8%.
Regarding “RNA1{r(G)p.r(C)p.r(A)p.r(A)p.r(G)p.r(G)p.r(G)p.r(G)p.r(A)p.r(G)p.r(A)p.r(U)p.r(C)p.r(A)p.r(C)p.r(G)p.r(G)p.r(A)p.r(G)p.d(T)p.d(T)}|RNA2{r(C)p.r(U)p.r(C)p.r(C)p.r(G)p.r(U)p.r(G)p.r(A)p.r(U)p.r(C)p.r(U)p.r(C)p.r(C)p.r(C)p.r(C)p.r(U)p.r(U)p.r(G)p.r(C)p.d(G)p.d(A)}$$$RNA1{StrandType:ss}|RNA2{StrandType:as}$”, the normalised inhibition (eCFP-eYFP dual reporter) is 90.5%.
For “RNA1{r(U)p.r(U)p.r(C)p.r(A)p.r(G)p.r(A)p.r(A)p.r(G)p.r(A)p.r(C)p.r(U)p.r(U)p.r(C)p.r(A)p.r(G)p.r(U)p.r(C)p.r(U)p.r(U)p.d(T)p.d(T)}|RNA2{r(A)p.r(A)p.r(G)p.r(A)p.r(C)p.r(U)p.r(G)p.r(A)p.r(A)p.r(G)p.r(U)p.r(C)p.r(U)p.r(U)p.r(C)p.r(U)p.r(G)p.r(A)p.r(A)p.d(T)p.d(G)}$$$RNA1{StrandType:ss}|RNA2{StrandType:as}$” the value was 92.5%; for “RNA1{r(G)p.r(G)p.r(U)p.r(U)p.r(U)p.r(G)p.r(C)p.r(C)p.r(G)p.r(G)p.r(A)p.r(G)p.r(A)p.r(C)p.r(U)p.r(G)p.r(G)p.r(A)p.r(A)p.d(T)p.d(T)}|RNA2{r(U)p.r(U)p.r(C)p.r(C)p.r(A)p.r(G)p.r(U)p.r(C)p.r(U)p.r(C)p.r(C)p.r(G)p.r(G)p.r(C)p.r(A)p.r(A)p.r(A)p.r(C)p.r(C)p.d(G)p.d(A)}$$$RNA1{StrandType:ss}|RNA2{StrandType:as}$”, 103%; for “RNA1{r(A)p.r(G)p.r(U)p.r(U)p.r(C)p.r(U)p.r(G)p.r(U)p.r(G)p.r(A)p.r(U)p.r(G)p.r(U)p.r(A)p.r(C)p.r(C)p.r(C)p.r(U)p.r(A)p.d(T)p.d(T)}|RNA2{r(U)p.r(A)p.r(G)p.r(G)p.r(G)p.r(U)p.r(A)p.r(C)p.r(A)p.r(U)p.r(C)p.r(A)p.r(C)p.r(A)p.r(G)p.r(A)p.r(A)p.r(C)p.r(U)p.d(G)p.d(G)}$$$RNA1{StrandType:ss}|RNA2{StrandType:as}$”, 116%.
As for “RNA1{r(C)p.r(A)p.r(A)p.r(A)p.r(G)p.r(A)p.r(A)p.r(G)p.r(G)p.r(C)p.r(C)p.r(A)p.r(C)p.r(C)p.r(A)p.r(G)p.r(U)p.r(G)p.r(C)p.d(T)p.d(T)}|RNA2{r(G)p.r(C)p.r(A)p.r(C)p.r(U)p.r(G)p.r(G)p.r(U)p.r(G)p.r(G)p.r(C)p.r(C)p.r(U)p.r(U)p.r(C)p.r(U)p.r(U)p.r(U)p.r(G)p.d(T)p.d(T)}$$$RNA1{StrandType:ss}|RNA2{StrandType:as}$”, the normalised inhibition (eCFP-eYFP dual reporter) turned out to be 38.2%.
On to “RNA1{r(C)p.r(A)p.r(U)p.r(A)p.r(A)p.r(U)p.r(U)p.r(G)p.r(G)p.r(C)p.r(U)p.r(U)p.r(C)p.r(G)p.r(C)p.r(A)p.r(A)p.r(G)p.r(G)p.d(T)p.d(T)}|RNA2{r(C)p.r(C)p.r(U)p.r(U)p.r(G)p.r(C)p.r(G)p.r(A)p.r(A)p.r(G)p.r(C)p.r(C)p.r(A)p.r(A)p.r(U)p.r(U)p.r(A)p.r(U)p.r(G)p.d(A)p.d(T)}$$$RNA1{StrandType:ss}|RNA2{StrandType:as}$”, for which the normalised inhibition (eCFP-eYFP dual reporter) worked out at 63.1%.
